Source: patent US9074235B2, “Method for evaluating the improvement of skin elasticity using a mimetic dermis” (AMOREPACIFIC CORPORATION, priority 2010, dated 2015)

Assays:
[1] = tested on: dermal mimics (glycated collagen with human neonatal fibroblasts); assay: Evaluation of skin elasticity-improving effect using dermal mimics (three-dimensional images); type: cell-based; conditions: observed about 10 minutes after separation from culture insert
Method: (1) 40 μl of 10× P buffer (DMEM (Dulbecco's Modified Eagle Medium (DMEM powder, Gibco, USA)), a Ham's F-12 nutrient mixture (F-12 powder, Gibco, USA), 4 ml of an antibiotic-antifungal agent (PSF, Gibco, USA) in 400 ml of sterile distilled water, 40 μl of reconstitution buffer (obtained by dissolving 2.2 g of NaHCO3 and 4.77 g of HEPES in 100 ml of 0.05M NaOH, and filtering the solution) and 2 μl of 5 M NaOH were added to an Epi-tube and sufficiently mixed.
(2) 320 μl of an aqueous solution of normal collagen or an aqueous solution of glycated collagen is added to and well mixed with the mixture of step (1) and using a pipette.
(3) 10^4 human neonatal fibroblasts (HDFn, Cascade Biologics, USA) are added to and well mixed with the solution of step (2) using a pipette so that the fibroblasts are uniformly distributed in the solution.
(4) A culture insert (12 mm, Transwell®, Corning, USA) is placed in a 12-well culture dish, and the mixture is placed in the culture insert and is allowed to react at 37° for 30 minutes so that the aqueous collagen solution is hardened.
(5) After the collagen has been completely hardened, fibroblast culture medium (M106, Cascade Biologics, USA) is added to both the inside and outside of the culture insert and incubated overnight. Then, the dermal mimic is incubated for in about one week while the medium is replaced at 3-day intervals. In this process, dermal remodeling occurs due to the interaction between the fibroblasts and the collagen fibers.
Specifically, in this Example, the following collagens were prepared: non-glycated collagen (normal collagen); collagen glycated by treatment with 62.5 mM of ribose; collagen glycated by treatment with 62.5 mM of ribose together with 10 ppm of tocopherol; and collagen glycated by treatment with 62.5 mM of ribose together with 1 ppm of DPHP. Herein, the ribose used was obtained by dissolving D-ribose (Sigma, USA) in water and filtering the solution through a 0.2 μm filter (Minisart® sartorious stedim biotech, Germany). […]

[2] = tested on: collagen gel with fibroblasts; assay: Collagen gel contraction assay (two-dimensional); type: cell-based, human; conditions: collagen glycated with ribose at 62.5, 125 and 250 mM
Method: Specifically, the dermal mimics were prepared according to the method of Reference Example 1, and the glycated collagen solution used in step (2) of the preparation method of Reference Example 1 was obtained by treating collagen with ribose at concentrations of 0, 62.5, 125 and 250 mM to induce collagen glycation. In addition, the ribose used was obtained by dissolving D-ribose (Sigma, USA) in water and filtering the solution through a 0.2 μm filter (Minisart® sartorious stedim biotech, Germany).
A specific method for glycation of collagen is as follows. D-ribose was added to a solution of collagen (obtained by dissolving type I collagen (Sigma, USA) in 0.1% acetic acid to a final concentration of 3 mg/ml) at specific concentrations (62.5, 125 and 250 mM) in a clean bench for preventing the contamination of collagen, and the mixture was placed in a rotation mixer rotatable at 360°, after which the mixture was allowed to react at room temperature for 3 days to induce glycation of the collagen.
In addition, for comparison, a collagen gel contraction assay which is a two-dimensional method was carried out by culturing a collagen gel, obtained by mixing fibroblasts with collagen glycated with the above-described concentrations of ribose, in a general culture dish, and obtaining a digital image of the cultured collagen gel.

tocopherol
breakdown of the dermal mimics (shape/height on three-dimensional image) ([1]; collagen glycated with 62.5 mM ribose together with 10 ppm tocopherol): breakdown of the dermal mimics was inhibited

O=C[C@H](O)[C@H](O)[C@H](O)CO [ribose, D-ribose]
contraction of collagen gels (two-dimensional digital image) [2]: not contracted | shape of the dermal mimics (three-dimensional image) ([1]; collagen glycated with 62.5 mM ribose alone): broken down

CCCCCCCCCCCCCCCC(=O)O[C@@H]1C[C@@H](C(=O)O)N(C(=O)CCCCCCCCCCCCCCC)C1 [DPHP]
breakdown of the dermal mimics (shape/height on three-dimensional image) ([1]; collagen glycated with 62.5 mM ribose together with 1 ppm DPHP): breakdown of the dermal mimics was inhibited
